Experimental findings from US12091409B2, “Ether linked triazoles as NRF2 activators” (ASTEX THERAPEUTICS LIMITED, priority 2016, dated 2024) are described below.

Structures can show the parent of a compound that is named as a salt. Where only a bound is given, the exact number is not on record here.

In the first test the test system is NQO1 specific enzyme activity in BEAS-2B cells (marker for NRF2 activation). Description: BEAS-2B NQO1 MTT Assay. The following applies: Homo sapiens, BEAS-2B, 48 h, NQO1 specific activity induction, 48 hours with compound. It counts as cell-based. The method, boiled down:
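Following 48 h compound treatment at 37° C., 5% CO2, cells were lysed and MTT cocktail added. Product formation was followed kinetically at 570 nm for 30 min. Rate (Delta OD/min) against log concentration was fitted with 3 parameters to give pEC50 for induction of NQO1 specific activity.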
In the case of `CCn1cc(CO[C@H](c2ccc(C)c(CN3C[C@@H](C)Cc4ccncc4S3(=O)=O)c2)C(C)(C)C(=O)O)nn1` [Example 61, (3R)-((1-ethyl-1H-1,2,3-triazol-4-yl)methoxy)-2,2-dimethyl-3-(4-methyl-3-(((S)-4-methyl-1,1-dioxido-4,5-dihydropyrido[4,3-f][1,2]thiazepin-2(3H)-yl)methyl)phenyl)propanoic acid], the EC50 was below 1 nM.
In the case of `COCCOCCn1cc(CO[C@@H](c2ccc(C)c(CN3C[C@@H](C)Oc4ccccc4S3(=O)=O)c2)C(C)(C)C(=O)O)nn1` [Example 71, (3S)-((1-(2-(2-methoxyethoxy)ethyl)-1H-1,2,3-triazol-4-yl)methoxy)-2,2-dimethyl-3-(4-methyl-3-(((R)-4-methyl-1,1-dioxido-3,4-dihydro-2H-benzo[b][1,4,5]oxathiazepin-2-yl)methyl)phenyl)propanoic acid], the EC50 lay within 10 to 100 nM.
Consider `CCCn1cc(CO[C@H](c2ccc(C)c(CN3C[C@H](C)Cc4ccncc4S3(=O)=O)c2)C(C)(C)C(=O)O)nn1` [Example 67, (R)-2,2-dimethyl-3-(4-methyl-3-(((R)-4-methyl-1,1-dioxido-4,5-dihydropyrido[4,3-f][1,2]thiazepin-2(3H)-yl)methyl)phenyl)-3-((1-propyl-1H-1,2,3-triazol-4-yl)methoxy)propanoic acid], for which the EC50 lay in the range of 100 to 1000 nM.
For `CCn1cc(CO[C@@H](c2ccc(C)c(CN3C[C@H](C)Cc4ccccc4S3(=O)=O)c2)C(C)(C)C(=O)O)nn1` [Example 65, (3S)-((1-ethyl-1H-1,2,3-triazol-4-yl)methoxy)-2,2-dimethyl-3-(4-methyl-3-(((R)-4-methyl-1,1-dioxido-4,5-dihydrobenzo[f][1,2]thiazepin-2(3H)-yl)methyl)phenyl)propanoic acid], the EC50 is 100 to 1000 nM.
In the case of `CC[C@H]1Cc2ccccc2S(=O)(=O)N(Cc2cc([C@@H](OCc3cn(CC)nn3)C(C)(C)C(=O)O)ccc2C)C1` [Example 85, (3R)-((1-ethyl-1H-1,2,3-triazol-4-yl)methoxy)-2,2-dimethyl-3-(4-methyl-3-(((S)-4-ethyl-1,1-dioxido-4,5-dihydrobenzo[f][1,2]thiazepin-2(3H)-yl)methyl)phenyl)propanoic acid], the EC50 was below 1 nM.
On to `CCn1cc(CO[C@@H](c2ccc(C)c(CN3C[C@H](C)Cc4ccncc4S3(=O)=O)c2)C(C)(C)C(=O)O)nn1` [Example 63, (3S)-((1-ethyl-1H-1,2,3-triazol-4-yl)methoxy)-2,2-dimethyl-3-(4-methyl-3-(((R)-4-methyl-1,1-dioxido-4,5-dihydropyrido[4,3-f][1,2]thiazepin-2(3H)-yl)methyl)phenyl)propanoic acid], for which the EC50 is 1000 to 10000 nM.
As for `CC[C@@H]1CN(Cc2cc(C(OCc3cn(Cc4cccc(-c5cccc(C(=O)O)c5)c4)nn3)C(C)(C)C(=O)O)ccc2C)S(=O)(=O)c2ccccc2O1` (stereo partly drawn) [Example 23, 3′-((4-((2-Carboxy-1-(3-(((R)-4-ethyl-1,1-dioxido-3,4-dihydro-2H-benzo[b][1,4,5]oxathiazepin-2-yl)methyl)-4-methylphenyl)-2-methylpropoxy)methyl)-1H-1,2,3-triazol-1-yl)methyl)-[1,1′-biphenyl]-3-carboxylic acid], the EC50 was in the range of 10 to 100 nM.
For the compound `CC[C@@H]1CN(Cc2cc(C(OCc3cn(Cc4ccccc4)nn3)C(C)(C)C(=O)O)ccc2C)S(=O)(=O)c2ccccc2O1` (stereo partly drawn) [Example 7, 3-((1-Benzyl-1H-1,2,3-triazol-4-yl)methoxy)-3-(3-(((R)-4-ethyl-1,1-dioxido-3,4-dihydro-2H-benzo[b][1,4,5]oxathiazepin-2-yl)methyl)-4-methylphenyl)-2,2-dimethylpropanoic acid], the EC50 was below 1 nM.
For the compound `CC[C@@H]1CN(Cc2cc(C(OCc3cn(CC)nn3)C(F)(F)C(=O)O)ccc2C)S(=O)(=O)c2ccccc2O1` (stereo partly drawn) [Example 60, 3-(3-(((R)-4-Ethyl-1,1-dioxido-3,4-dihydro-2H-benzo[b][1,4,5]oxathiazepin-2-yl)methyl)-4-methylphenyl)-3-((1-ethyl-1H-1,2,3-triazol-4-yl)methoxy)-2,2-difluoropropanoic acid], the EC50 lay in the range of 100 to 1000 nM.
As for `CCn1cc(COC(c2ccc(C)c(CN(Cc3ccccn3)S(=O)(=O)c3cccc(Br)c3)c2)C(C)(C)C(=O)O)nn1` (stereo not shown) [Example 74, 3-(3-(((3-Bromo-N-(pyridin-2-ylmethyl)phenyl)sulfonamido)methyl)-4-methylphenyl)-3-((1-ethyl-1H-1,2,3-triazol-4-yl)methoxy)-2,2-dimethylpropanoic acid], the EC50 fell in the range of 10 to 100 nM.
Take `CC[C@H]1Cc2ccccc2S(=O)(=O)N(Cc2cc([C@H](OCc3cn(CC)nn3)C(C)(C)C(=O)O)ccc2C)C1` [Example 81, (3S)-((1-ethyl-1H-1,2,3-triazol-4-yl)methoxy)-2,2-dimethyl-3-(4-methyl-3-(((S)-4-ethyl-1,1-dioxido-4,5-dihydrobenzo[f][1,2]thiazepin-2(3H)-yl)methyl)phenyl)propanoic acid]: the EC50 lay within 1 to 10 nM.
The same measure, in the same setting: as for `CC[C@@H]1CN(Cc2cc([C@@H](OCc3cn(CC)nn3)C(C)(C)C(=O)O)ccc2C)Cc2ncccc2O1` [Example 113, (R)-3-((1-Ethyl-1H-1,2,3-triazol-4-yl)methoxy)-3-(3-(((R)-2-ethyl-2,3-dihydropyrido[2,3-f][1,4]oxazepin-4(5H)-yl)methyl)-4-methylphenyl)-2,2-dimethylpropanoic Acid, Trifluoroacetate], the figure is 10 to 100 nM; as for `CCn1cc(CO[C@H](c2ccc(C)c(CN3C[C@H](C)Cc4ccccc4S3(=O)=O)c2)C(C)(C)C(=O)O)nn1` [Example 70, (3R)-((1-ethyl-1H-1,2,3-triazol-4-yl)methoxy)-2,2-dimethyl-3-(4-methyl-3-(((R)-4-methyl-1,1-dioxido-4,5-dihydrobenzo[f][1,2]thiazepin-2(3H)-yl)methyl)phenyl)propanoic acid], 10 to 100 nM.
On the same count and under the same terms, the same measure for `COC(=O)C(C)(C)C(OCc1cn(Cc2cccc(-c3ccnc(C(=O)O)c3)c2)nn1)c1ccc(C)c(CN2C[C@@H](C)Oc3ccccc3S2(=O)=O)c1` (stereo partly drawn) [Example 57, 4-(3-((4-((3-Methoxy-2,2-dimethyl-1-(4-methyl-3-(((R)-4-methyl-1,1-dioxido-3,4-dihydro-2H-benzo[b][1,4,5]oxathiazepin-2-yl)methyl)phenyl)-3-oxopropoxy)methyl)-1H-1,2,3-triazol-1-yl)methyl)phenyl)picolinic acid]: 100 to 1000 nM; for `CCCn1cc(CO[C@H](c2ccc(C)c(CN3C[C@H](C)Cc4ccc(F)cc4S3(=O)=O)c2)C(C)(C)C(=O)O)nn1` [Example 76, (3R)-(3-(((R)-8-fluoro-4-methyl-1,1-dioxido-4,5-dihydrobenzo[f][1,2]thiazepin-2(3H)-yl)methyl)-4-methylphenyl)-2,2-dimethyl-3-((1-propyl-1H-1,2,3-triazol-4-yl)methoxy)propanoic acid]: 1 to 10 nM.
Still for that read-out and setting: the same measure for `CCn1cc(COC(c2ccc(C)c(CN(Cc3ccccc3)S(=O)(=O)c3ccccc3)c2)C(C)(C)C(=O)O)nn1` (stereo not shown) [Example 99, 3-(3-((N-benzylphenylsulfonamido)methyl)-4-methylphenyl)-3-((1-ethyl-1H-1,2,3-triazol-4-yl)methoxy)-2,2-dimethylpropanoic acid]: 10 to 100 nM; for `CC[C@@H]1CN(Cc2cc([C@@H](OCc3cn(C)nn3)C(C)(C)C(=O)O)ccc2C)S(=O)(=O)c2ncccc2O1` [Example 121, (R)-3-(3-(((R)-4-Ethyl-1,1-dioxido-3,4-dihydro-2H-pyrido[3,2-b][1,4,5]oxathiazepin-2-yl)methyl)-4-methylphenyl)-2,2-dimethyl-3-((1-methyl-1H-1,2,3-triazol-4-yl)methoxy)propanoic acid]: 1 to 10 nM; for `CC[C@@H]1CN(Cc2cc([C@H](OCc3cn(CC)nn3)C(C)(C)C(=O)O)ccc2C)Cc2ncccc2O1` [Example 114, (S)-methyl 3-((1-ethyl-1H-1,2,3-triazol-4-yl)-methoxxy)-3-(3-(((R)-2-ethyl-2,3-dihydropyrido[2,3-f][1,4]oxazepin-4(5H)-yl)methyl)-4-methylphenyl)-2,2-dimethyl-propanoic acid, trifluoroacetate]: 100 to 1000 nM.
Consider `CC[C@@H]1CN(Cc2cc([C@@H](OCc3cn(C)nn3)C(C)(C)C(=O)O)ccc2C)Cc2nc(C)ccc2O1` [Example 110, (R)-3-(3-(((R)-2-Ethyl-7-methyl-2,3-dihydropyrido[2,3-f][1,4]oxazepin-4(5H)-yl)methyl)-4-methylphenyl)-2,2-dimethyl-3-((1-methyl-1H-1,2,3-triazol-4-yl)methoxy)propanoic acid trifluoroacetate], for which the EC50 lay in the range of 1 to 10 nM.
For the compound `Cc1ccc([C@@H](OCc2cn(Cc3ccc(Cn4cc(CO[C@H](c5ccc(C)c(CN6C[C@@H](C)Oc7ccccc7S6(=O)=O)c5)C(C)(C)C(=O)O)nn4)cc3)nn2)C(C)(C)C(=O)O)cc1CN1C[C@@H](C)Oc2ccccc2S1(=O)=O` (relative stereo) [Example 49, (R,rel-(3R,3′R))-3,3′-(((1,1′-(1,4-phenylenebis(methylene))bis(1H-1,2,3-triazole-4,1-diyl))bis(methylene))bis(oxy))bis(2,2-dimethyl-3-(4-methyl-3-(((R)-4-methyl-1,1-dioxido-3,4-dihydro-2H-benzo[b][1,4,5]oxathiazepin-2-yl)methyl)phenyl)propanoic acid)], the EC50 was 100 to 1000 nM.
For the compound `Cc1ccc(C(OCc2cn(Cc3ccc(CN=[N+]=[N-])cc3)nn2)C(C)(C)C(=O)O)cc1CN1C[C@@H](C)Oc2ccccc2S1(=O)=O` (stereo partly drawn) [Example 19, 3-((1-(4-(Azidomethyl)benzyl)-1H-1,2,3-triazol-4-yl)methoxy)-2,2-dimethyl-3-(4-methyl-3-(((R)-4-methyl-1,1-dioxido-3,4-dihydro-2H-benzo[b][1,4,5]oxathiazepin-2-yl)methyl)phenyl)propanoic acid], the EC50 was in the range of 1 to 10 nM.

The same test, now with this note: NQO1 specific activity induction, 48 hours with compound.
Take `Cc1ccc(C(OCc2cn(C3COC3)nn2)C(C)(C)C(=O)O)cc1CN1C[C@@H](C)Cc2ccncc2S1(=O)=O` (single isomer, unassigned) [Example 103]: the EC50 is 1 to 10 nM.

By EC50 is commonly meant the concentration giving half of the maximal effect.
